Converted amounts (≈) assume the structure as drawn.
Columns and labels:
Format in all cases: physicochemical
[1] = Relative permittivity of solvent (impedance meter method, 1 kHz, 22° C.); conditions: frequency 1 kHz
Excerpt: In the case where the solvent is used as a mixture, when the interaction between the solvents is small as in the invention, the relative permittivity of the mixed solvent can be approximated by multiplying relative permittivity of each solvent constituting the mixed solvent by each volume fraction and summing respective products. Moreover, when the interaction between the solvents is similarly small, solubility of the mixed solvent in water can be approximated by a value obtained by multiplying solubility of each solvent constituting the mixed solvent in water by each molar fraction and summing respective products.
Thereafter, the equivalent parallel capacity was measured while applying a test signal voltage of 0.1 V at a frequency of 1 kHz at 22° C. The relative permittivity was determined through the calculation according to the following equation to evaluate the solvent or ink. Relative permittivity=(equivalent parallel capacity)×(electrode spacing)/(electrode area)/(permittivity in vacuum (ε0)) <Method for Measuring Solubility of Solvent in Water>

[2] = Solubility of solvent in water at 25° C.; conditions: pure water, thermodynamic from solid, single solvent
Procedure: Pure water (30 g) and a solvent (8 g) were introduced into 110 ml of a vial, which was shaken 200 times/minute for 4 hours in a constant-temperature tank at 25° C. The mixture after shaking was centrifuged (6000×g, for 5 minutes), the aqueous layer was sampled, and the concentration of the solvent dissolved was quantitatively determined by gas chromatography. Since Isopar was not a single compound but a mixture, the quantitative determination was performed as TOC (total organic carbon), which was converted into solubility according to the following equation, the average molecular weight being shown as Mw. Solubility [mg/L]=TOC [mg/L]×(14Mw/{12(Mw−2)}
In the case of a mixed solvent in which two or more kinds of solvents were mixed, the solubility in water was determined by multiplying the solubility of each solvent in water by each molar fraction and summing up the resulting products.
In the case where the solvent species used is unclear, the solubility in water can be measured by the above method through identification of the solvent species by mass spectroscopy or the like.

[3] = Absorption-maximum wavelength λmax, molar extinction coefficient ε and solution colour in each solvent; conditions: for Absorption-maximum wavelength / ε: n-decane; for Color tone: n-decane solution; for ε: at absorption-maximum wavelength
Procedure: Each of the compounds 1 to 15 and the comparative example compounds 1 and 2 (1 mg each) was dissolved in each solvent (100 ml) and measurement of absorption spectra was performed on Hitachi spectrophotometer U-4100 using a quartz cell having an optical path length for measurement of 10 mm. From the resulting spectra, absorption-maximum wavelength λmax (nm) and molar extinction coefficient ε ([…]) were determined.

[4] = Solubility C (saturated concentration at 5° C.) of compound in low-polarity solvent and product εC; conditions: for ε · C: n-decane, C at 5° C.; for solubility at 24 h: organic solvent or mixture, thermodynamic from solid, in n-decane, at 5° C.
Procedure: The solubility C of each compound in each solvent was measured as follows.
Each compound was added to each solvent until a dissolution residue came to remain, and the mixture was subjected to an ultrasonic treatment for 30 minutes at 30° C. After the mixture was allowed to stand at 5° C. for 24 hours, centrifugal filtration was performed through a filter of 0.1 μm using a microcentrifuge (centrifugal force 5200×g). The resulting saturated solution was diluted to an appropriate concentration, and measurement of absorption spectra was performed on Hitachi spectrophotometer U-4100 using a quartz cell having an optical path length for measurement of 10 mm. The concentration of each compound was determined from a relationship between the absorbance at the absorption-maximum wavelength λmax (nm) and the molar extinction coefficient ε (L·mol^−1·cm^−1) previously measured, and the solubility C (mol·L^−1) was calculated. Moreover, the value of the product of the molar extinction coefficient ε (L·mol^−1·cm^−1) and the solubility C (mol·L^−1), εC, was determined.
Sudan Black B (manufactured by Tokyo Chemical Industry Co., Ltd.) that is a commercially available oil-soluble black dye was added to n-decane (relative permittivity 2.0, solubility in water 1 mg/L or less) until a dissolution residue came to remain, and the mixture was subjected to an ultrasonic treatment for 30 minutes at 30° C. After the mixture was allowed to stand at 5° C. for 24 hours, centrifugal filtration was performed through a filter of 0.1 μm using a microcentrifuge (centrifugal force 5200×g). The resulting saturated n-decane solution was diluted to an appropriate concentration.

relative permittivity [1]	solubility at 4 h [2] [µg/mL]	Absorption-maximum wavelength [3] [nm]	Color tone [3]	ε [3] [L/mol/cm]	ε · C [4] [cm⁻¹]	solubility at 24 h [4] [mM]	Compound
2.0	≤ 1						CCCCCCCCCC [n-decane]
2.0							n-decaline
		619	blue	76000	1800	24 (≈ 16.1 mg/mL)	CCCCc1ccc(N=Nc2cc(C#N)c(/N=N/c3ccc(N(CC(CC)CCCC)CC(CC)CCCC)cc3NC(C)=O)s2)cc1 (stereo not shown) [Compound 1]
		613	blue	64000	1700	27 (≈ 16.9 mg/mL)	CCCCc1ccc(N=Nc2cc(C#N)c(/N=N/c3ccc(N(CC(CC)CCCC)CC(CC)CCCC)cc3C)s2)cc1 (stereo not shown) [Compound 15]

Reference: US9200171B2, “AZO compound and ink containing the compound” (MITSUBISHI CHEMICAL CORPORATION, priority 2011, dated 2015)
